# Laboratory results: patent US10781224B2, “Bis(oxymethyl)phosphinic acid and biogenic metal salts thereof as regulators of plant growth and development” (priority 2016, dated 2020)
# Tested on: rice (Diamant variety)
# Experiment: Rice seed treatment with BHMPA salts: germinating power
# Type: in vivo
# Procedure: Experimental versions—soaking seeds in BHMPA solutions and solutions of BHMPA Ca, Mg, Na, Co, Mn, Cu, and Zn salts at 1·10^−6-1·10^−12% concentrations (doses). The studies were conducted in laboratory in Petri dishes; seed bed—two layers of filter paper. 50 seeds soaked in water (control) and in the solutions of the tested compounds (experimental) were placed into each dish. Wheat, corn, and rice seeds were exposed for one hour.
# Seed germination energy and rate were calculated in percent as an arithmetic mean of the four experimental results (germination energy on the 4th day, wheat germination on the 8th day, rice and corn germination—on the 7th day). Germination was determined based on the germinating power indicators (length of the roots and sprouts and their wet and dry mass per 100 shoots).
# The effect of pre-sowing seed treatment with the claimed BHMPA salts of biogenic metals was studied on winter wheat (Vershin variety), corn (Krasnodar 385 MV variety), and rice (Diamant variety).
# The above data describe the seed viability only at the initial stage of germination, while the germination ability at the later stage of germination is defined by the initial germinating power. The method for the determination of the germinating power comprises measuring the height of the sprouts and primary roots, as well as the biomass and the dry mass thereof per 100 seedlings. [M. A. Kartuzova. Initial Germinating Power as Method of Biological Assessment of Seed Quality. Selection and Seed Farming, #2, 1953].
# [1] = rice seed treatment, comparison with Melaphen (Table XXXIII), solution 1 · 10^−9%
# [2] = rice seeds, solution concentration 1 · 10^−6%
# [3] = rice seeds, solution concentration 1 · 10^−7%
# [4] = rice seeds, solution concentration 1 · 10^−8%
# [5] = rice seeds, solution concentration 1 · 10^−9%
# [6] = rice seeds, solution concentration 1 · 10^−10%
# [7] = rice seeds, solution concentration 1 · 10^−11%
# [8] = rice seeds, solution concentration 1 · 10^−12%
# [9] = rice, vs control, 1·10^−9% solution
compound,measurement,setting,value
"O.O.O=P([O-])(CO)CO.O=P([O-])(CO)CO.[Co+2] [Co-salt, Cobalt BHMPA Salt]",optimum concentration for treating rice seeds before sowing,rice,1·10^−9%
same,"Length, root",[1],6.4 cm
same,"Length, root, + % to control",[1],33%
same,"Length, sprout",[1],3.7 cm
same,"Length, sprout, + % to control",[1],42%
same,"Mass, dry, root",[1],0.25 g/100 plantlings
same,"Mass, dry, root, + % to control",[1],19%
same,"Mass, dry, sprout",[1],0.28 g/100 plantlings
same,"Mass, dry, sprout, + % to control",[1],12%
same,"Mass, wet, root",[1],1.37 g/100 plantlings
same,"Mass, wet, root, + % to control",[1],40%
same,"Mass, wet, sprout",[1],2.28 g/100 plantlings
same,"Mass, wet, sprout, + % to control",[1],51%
same,"Length, root",[2],5.1 cm
same,"Length, root, + % to control",[2],8.5%
same,"Length, sprout",[2],2.6 cm
same,"Length, sprout, + % to control",[2],13%
same,"Mass, dry, root",[2],0.19 g/100 plantlings
same,"Mass, dry, root, + % to control",[2],12%
same,"Mass, dry, sprout",[2],0.25 g/100 plantlings
same,"Mass, dry, sprout, + % to control",[2],25%
same,"Mass, wet, root",[2],0.89 g/100 plantlings
same,"Mass, wet, root, + % to control",[2],8.5%
same,"Mass, wet, sprout",[2],1.71 g/100 plantlings
same,"Mass, wet, sprout, + % to control",[2],15.5%
same,"Length, root",[3],5.4 cm
same,"Length, root, + % to control",[3],15%
same,"Length, sprout",[3],2.9 cm
same,"Length, sprout, + % to control",[3],26%
same,"Mass, dry, root",[3],0.22 g/100 plantlings
same,"Mass, dry, root, + % to control",[3],29%
same,"Mass, dry, sprout",[3],0.28 g/100 plantlings
same,"Mass, dry, sprout, + % to control",[3],40%
same,"Mass, wet, root",[3],0.94 g/100 plantlings
same,"Mass, wet, root, + % to control",[3],15%
same,"Mass, wet, sprout",[3],1.80 g/100 plantlings
same,"Mass, wet, sprout, + % to control",[3],22%
same,"Length, root",[4],5.7 cm
same,"Length, root, + % to control",[4],21%
same,"Length, sprout",[4],3.1 cm
same,"Length, sprout, + % to control",[4],35%
same,"Mass, dry, root",[4],0.24 g/100 plantlings
same,"Mass, dry, root, + % to control",[4],41%
same,"Mass, dry, sprout",[4],0.31 g/100 plantlings
same,"Mass, dry, sprout, + % to control",[4],55%
same,"Mass, wet, root",[4],1.07 g/100 plantlings
same,"Mass, wet, root, + % to control",[4],30%
same,"Mass, wet, sprout",[4],2.01 g/100 plantlings
same,"Mass, wet, sprout, + % to control",[4],36%
same,"Length, root",[5],6.2 cm
same,"Length, root, + % to control",[5],32%
same,"Length, sprout",[5],3.5 cm
same,"Length, sprout, + % to control",[5],52%
same,"Mass, dry, root",[5],0.26 g/100 plantlings
same,"Mass, dry, root, + % to control",[5],53%
same,"Mass, dry, sprout",[5],0.35 g/100 plantlings
same,"Mass, dry, sprout, + % to control",[5],75%
same,"Mass, wet, root",[5],1.15 g/100 plantlings
same,"Mass, wet, root, + % to control",[5],40%
same,"Mass, wet, sprout",[5],2.09 g/100 plantlings
same,"Mass, wet, sprout, + % to control",[5],41%
same,"Length, root",[6],5.8 cm
same,"Length, root, + % to control",[6],23%
same,"Length, sprout",[6],3.2 cm
same,"Length, sprout, + % to control",[6],39%
same,"Mass, dry, root",[6],0.23 g/100 plantlings
same,"Mass, dry, root, + % to control",[6],35%
same,"Mass, dry, sprout",[6],0.28 g/100 plantlings
same,"Mass, dry, sprout, + % to control",[6],40%
same,"Mass, wet, root",[6],1.03 g/100 plantlings
same,"Mass, wet, root, + % to control",[6],26%
same,"Mass, wet, sprout",[6],1.97 g/100 plantlings
same,"Mass, wet, sprout, + % to control",[6],33%
same,"Length, root",[7],5.6 cm
same,"Length, root, + % to control",[7],19%
same,"Length, sprout",[7],2.8 cm
same,"Length, sprout, + % to control",[7],22%
same,"Mass, dry, root",[7],0.20 g/100 plantlings
same,"Mass, dry, root, + % to control",[7],18%
same,"Mass, dry, sprout",[7],0.26 g/100 plantlings
same,"Mass, dry, sprout, + % to control",[7],30%
same,"Mass, wet, root",[7],0.94 g/100 plantlings
same,"Mass, wet, root, + % to control",[7],15%
same,"Mass, wet, sprout",[7],1.89 g/100 plantlings
same,"Mass, wet, sprout, + % to control",[7],28%
same,"Length, root",[8],5.2 cm
same,"Length, root, + % to control",[8],11%
same,"Length, sprout",[8],2.7 cm
same,"Length, sprout, + % to control",[8],17%
same,"Mass, dry, root",[8],0.19 g/100 plantlings
same,"Mass, dry, root, + % to control",[8],12%
same,"Mass, dry, sprout",[8],0.24 g/100 plantlings
same,"Mass, dry, sprout, + % to control",[8],20%
same,"Mass, wet, root",[8],0.88 g/100 plantlings
same,"Mass, wet, root, + % to control",[8],7%
same,"Mass, wet, sprout",[8],1.82 g/100 plantlings
same,"Mass, wet, sprout, + % to control",[8],23%
same,dry mass of the roots increased by,[9],53%
same,dry mass of the sprouts increased by,[9],75%
same,length of the root increased by,[9],32%
same,length of the sprout increased by,[9],52%
same,wet mass of the roots increased by,[9],40%
same,wet mass of the sprouts increased by,[9],41%
